For three molecules, MIC50 results are on record in ChEMBL document CHEMBL3244367, “Synthesis and determination of antiviral activity of the 2'(3')-O-methyl derivatives of ribavirin (1-beta-D-ribofuranosyl-1,2,4-triazole-3-carboxamide)” (1977).

Molecules are shown by their SMILES. ≈ marks a conversion by molar mass, not a printed value.

This experiment concerns Vaccinia virus. Nature of the experiment: Antiviral activity against Vaccinia virus infected in primary rabbit kidney cells assessed as inhibition of virus-induced cytopathogenicity treated immediately after virus adsorption measured 2 days after virus infection. The class given is functional. To be noted: Orthopoxvirus vaccinia, 48 h. Background: Cytopathic effects are the visible damage that an infection or toxin causes in cultured cells.
Take `CO[C@H]1[C@@H](O)[C@H](n2cnc(C(N)=O)n2)O[C@@H]1CO`: the MIC50 was above 200 µg/mL. Next, `NC(=O)c1ncn([C@@H]2O[C@H](CO)[C@@H](O)[C@H]2O)n1` [RIBAVIRIN]: 20 µg/mL (≈ 81.9 µM); `CO[C@@H]1[C@H](O)[C@@H](CO)O[C@H]1n1cnc(C(N)=O)n1`: above 200 µg/mL.
